Test results as given in patent US9669034B2, “4-aryl-N-phenyl-1,3,5-triazin-2-amines containing a sulfoximine group” (BAYER INTELLECTUAL PROPERTY GMBH, priority 2011, dated 2017).
Values after ≈ are worked out from the molar mass of the structure shown. Where two headings read alike, the source gives them in different places.

Key:
[1] = biological target: CDK9/CycT1 (Homo sapiens (Human), UniProt P50750); assay: CDK9/CycT1 kinase assay (TR-FRET); format: biochemical; details: Method 1
How it was run: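 Recombinant full-length His-tagged human CDK9/CycT1, insect-cell expressed and Ni-NTA purified. Substrate is a biotinylated peptide (biotin-Ttds-linked). Kinase inhibition is read out by TR-FRET.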

[2] = biological target: CDK2/CycE (Homo sapiens (Human), UniProt P24941); assay: CDK2/CycE kinase assay (TR-FRET); format: biochemical; details: Method 2
How it was run: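 Enzyme was GST-tagged human CDK2 with GST-tagged human CycE, expressed in Sf9 insect cells and glutathione-affinity purified. The kinase reaction used a biotinylated peptide substrate, with inhibition measured by TR-FRET.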

[3] = system: HeLa human cervical tumour cells; assay: Proliferation assay (crystal violet), HeLa; format: cell-based; details: Method 3, read-out: Inhibition of HeLa cell proliferation, IC50
How it was run: (§1)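 Cells were seeded at 3000/well (NCI-H460, HeLa), 5000/well (HeLa-MaTu-ADR) or 1500/well (Caco-2) in medium with 10% FCS. After 24 h, compounds ([…], 0.5% DMSO) were added for 4 days. Crystal violet absorbance at 595 nm was normalized to a zero-point plate and untreated cells; IC50 came from a 4-parameter fit.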

[4] = system: HeLa-MaTu-ADR, multidrug-resistant human cervical carcinoma cells; assay: Proliferation assay (crystal violet), HeLa-MaTu-ADR; format: cell-based; details: Homo sapiens, HeLa, Method 3, read-out: Inhibition of HeLa/MaTu/ADR cell proliferation, IC50
How it was run: as §1

[5] = system: NCI-H460, human non-small cell lung carcinoma cells; assay: Proliferation assay (crystal violet), NCI-H460; format: cell-based; details: Homo sapiens, NCI-H460, NCI-H460 cells, Method 3; read-out: Inhibition of NCI-H460 cell proliferation, IC50
How it was run: as §1

[6] = system: DU145, hormone-independent human prostate carcinoma cells; assay: Proliferation assay (crystal violet), DU145; format: cell-based; details: Homo sapiens, DU-145, DU145 cells, Method 3; read-out: Inhibition of DU145 cell proliferation, IC50
How it was run: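 DU145 hormone-independent human prostate carcinoma cells (ATCC HTB-81) were seeded at 5000 cells/well in 96-well plates in 200 μL growth medium with 10% fetal calf serum. After 24 hours, a zero-point plate was stained. The other plates got fresh medium containing test substances ([…], 0.5% dimethylsulfoxide) and were incubated for 4 days.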

[7] = system: Caco-2 human colorectal carcinoma; assay: Proliferation assay (crystal violet), Caco-2; format: cell-based; details: Homo sapiens, Caco-2, Caco-2 cells, Method 3; read-out: Inhibition of Caco-2 cell proliferation, IC50
How it was run: as §1

[8] = system: B16F10 mouse melanoma cells; assay: Proliferation assay (crystal violet), B16F10; format: cell-based; details: Mus musculus, B16-F10, B16F10 cells, Method 3; read-out: Inhibition of B16F10 cell proliferation, IC50
How it was run: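 B16F10 mouse melanoma cells (ATCC CRL-6475) were seeded at 1000 cells/well into 96-well plates in 200 μL growth medium containing 10% fetal calf serum. After 24 hours, one zero-point plate was stained with crystal violet. The remaining plates got fresh medium with test substances (0 M and […], 0.5% dimethylsulfoxide) and were incubated for 4 days.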

[9] = Equilibrium shake flask solubility assay; format: physicochemical; details: pH 6.5, equilibrium shake flask method; for solubility thermodynamic at 24 h: phosphate buffer, pH 6.5, aqueous buffer, thermodynamic from solid, water
Description: 4. Equilibrium Shake Flask Solubility Assay:
The thermodynamic solubility of compounds in water was determined by an equilibrium shake flask method (see for example: E. H. Kerns, L. Di: Drug-like Properties: Concepts, Structure Design and Methods, 276-286, Burlington, Mass., Academic Press, 2008). A saturated solution of the drug was prepared and the solution was mixed for 24 h to ensure that equilibrium was reached. The solution was centrifuged to remove the insoluble fraction and the concentration of the compound in solution was determined using a standard calibration curve.
To prepare the sample, 2 mg solid compound was weighed in a 4 mL glass vial. 1 mL phosphate buffer pH 6.5 was added. The suspension was stirred for 24 hrs at room temperature. The solution was centrifuged afterwards. To prepare the sample for the standard calibration, 2 mg solid sample was dissolved in 30 mL acetonitrile. After sonification the solution was diluted with water to 50 mL. Sample and standards were quantified by HPLC with UV-detection. For each sample two injection volumes (5 and 50 μl) in triplicates were made. Three injection volumes (5 μl, 10 μl and 20 μl) were made for the standard.
Chromatographic Conditions:
The areas of sample- and standard injections as well as the calculation of the solubility value (in mg/l) were determined by using HPLC software (Waters Empower 2 FR).

[10] = biological target: human carbonic anhydrase-1 (Homo sapiens (Human), UniProt P00915); assay: Carbonic anhydrase assay, carbonic anhydrase-1; format: biochemical; details: read-out: Inhibition of Carbonic anhydrase-1: IC50
Chain of human carbonic anhydrase-1 (P00915 whole entry): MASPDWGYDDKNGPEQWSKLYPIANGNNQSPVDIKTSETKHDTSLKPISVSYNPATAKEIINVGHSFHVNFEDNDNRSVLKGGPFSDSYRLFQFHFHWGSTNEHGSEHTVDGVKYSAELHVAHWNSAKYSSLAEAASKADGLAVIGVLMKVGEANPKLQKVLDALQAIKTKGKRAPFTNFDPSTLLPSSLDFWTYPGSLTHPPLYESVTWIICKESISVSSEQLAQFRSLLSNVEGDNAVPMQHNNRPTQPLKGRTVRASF
From the text: (§2) 5. Carbonic Anhydrase Assay
(§3) The principle of the assay is based on the hydrolysis of 4-nitrophenyl acetate by carbonic anhydrases (Pocker & Stone, Biochemistry, 1967, 6, 668), with subsequent photometric determination of the dye product 4-nitrophenolate at 400 nm by means of a 96-channel spectral photometer.
(§4) 2 microL of the test compounds, dissolved in DMSO (100-fold final concentration), in a concentration range of 0.03-10 micromol/L (final), was pipetted as quadruplicates into the wells of a 96-hole microtiter plate. Wells that contained the solvent without test compounds were used as reference values (1. Wells without carbonic anhydrase for correction of the non-enzymatic hydrolysis of the substrate, and 2. Wells with carbonic anhydrase for determining the activity of the non-inhibited enzyme).
(§5) 188 microL of assay buffer (10 millimol/L of Tris/HCl, pH 7.4, 80 millimol/L of NaCl), with or without 3 units/well of carbonic anhydrase-1 [=human carbonic anhydrase-1 (Sigma, #C4396)] in order to determine carbonic anhydrase-1 inhibition or 3 units/well of carbonic anhydrase-2 [=human carbonic anhydrase-2 (Sigma, #C6165)] for measuring carbonic anhydrase-2 inhibition, was pipetted into the wells of the microtiter plate. […] IC50 values were determined by means of a 4 parameter fit.

[11] = biological target: human carbonic anhydrase-2 (Homo sapiens (Human), UniProt P00918); assay: Carbonic anhydrase assay, carbonic anhydrase-2; format: biochemical; details: read-out: Inhibition of Carbonic anhydrase-2: IC50
From the text: as §2, §3, §4, §5

Chain of CDK9/CycT1 (P50750 whole entry): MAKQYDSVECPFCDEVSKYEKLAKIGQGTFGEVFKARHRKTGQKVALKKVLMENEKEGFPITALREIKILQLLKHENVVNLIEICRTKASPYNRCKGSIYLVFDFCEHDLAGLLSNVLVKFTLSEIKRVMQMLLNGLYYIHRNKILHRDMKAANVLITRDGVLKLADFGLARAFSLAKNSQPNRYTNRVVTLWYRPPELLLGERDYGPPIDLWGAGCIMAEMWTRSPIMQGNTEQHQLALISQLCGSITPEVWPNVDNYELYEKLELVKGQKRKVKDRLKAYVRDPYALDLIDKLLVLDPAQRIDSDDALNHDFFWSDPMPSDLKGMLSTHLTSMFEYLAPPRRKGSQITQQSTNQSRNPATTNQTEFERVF
Chain of CDK9/CycT1 (O60563 whole entry partner): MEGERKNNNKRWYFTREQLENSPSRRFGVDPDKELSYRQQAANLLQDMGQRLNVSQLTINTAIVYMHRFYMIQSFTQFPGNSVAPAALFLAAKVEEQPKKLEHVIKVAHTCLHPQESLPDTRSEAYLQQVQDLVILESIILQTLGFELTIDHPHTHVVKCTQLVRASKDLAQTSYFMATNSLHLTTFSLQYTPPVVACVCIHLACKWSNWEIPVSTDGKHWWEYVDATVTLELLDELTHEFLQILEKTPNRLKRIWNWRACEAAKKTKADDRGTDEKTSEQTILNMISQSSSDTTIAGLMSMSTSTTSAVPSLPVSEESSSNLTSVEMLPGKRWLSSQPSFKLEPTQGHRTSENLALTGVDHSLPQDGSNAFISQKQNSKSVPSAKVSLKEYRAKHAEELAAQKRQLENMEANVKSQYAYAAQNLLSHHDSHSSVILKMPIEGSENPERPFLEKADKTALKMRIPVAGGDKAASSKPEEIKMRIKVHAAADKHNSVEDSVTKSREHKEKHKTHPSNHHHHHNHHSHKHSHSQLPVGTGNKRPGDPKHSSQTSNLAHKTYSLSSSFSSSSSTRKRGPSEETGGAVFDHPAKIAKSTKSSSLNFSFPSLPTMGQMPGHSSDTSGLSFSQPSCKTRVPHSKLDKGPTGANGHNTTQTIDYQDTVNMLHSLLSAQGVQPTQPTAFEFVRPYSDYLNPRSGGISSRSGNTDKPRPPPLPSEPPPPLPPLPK

CC#CCOc1cc(F)ccc1-c1ncnc(Nc2cccc(CS(C)(=N)=O)c2)n1 (racemic) [Example 73, (rac)-4-[2-(But-2-yn-1-yloxy)-4-fluorophenyl]-N-{3-[(S-methylsulfonimidoyl)methyl]phenyl}-1,3,5-triazin-2-amine]
IC50 [1]: 8 nM
IC50 [2]: 820 nM
IC50 ([3]; Homo sapiens, HeLa): 240 nM
IC50 [4]: 280 nM
IC50 [5]: 260 nM
IC50 [6]: 200 nM
IC50 [7]: 300 nM
IC50 [8]: 150 nM
solubility thermodynamic at 24 h [9]: 1220 µg/mL (≈ 2870 µM)

C#CCOc1cc(F)ccc1-c1ncnc(Nc2cccc(CS(C)(=N)=O)c2)n1 (racemic) [Example 77, (rac)-4-[4-Fluoro-2-(prop-2-yn-1-yloxy)phenyl]-N-{3-[(S-methylsulfonimidoyl)methyl]phenyl}-1,3,5-triazin-2-amine]
IC50 [1]: 15 nM
IC50 [2]: 1600 nM
IC50 ([3]; Homo sapiens, HeLa): 470 nM
IC50 [4]: 630 nM
IC50 [5]: 560 nM
IC50 [6]: 480 nM
IC50 [7]: 300 nM
IC50 [8]: 520 nM
solubility thermodynamic at 24 h [9]: 256 µg/mL (≈ 622 µM)

CCOc1cc(F)ccc1-c1ncnc(Nc2cccc(CS(C)(=N)=O)c2)n1 (racemic) [Example 88, (rac)-4-(2-Ethoxy-4-fluorophenyl)-N-{3-[(S-methylsulfonimidoyl)methyl]phenyl}-1,3,5-triazin-2-amine]
IC50 [1]: 11 nM
IC50 [2]: 1300 nM
IC50 ([3]; Homo sapiens, HeLa): 380 nM
IC50 [4]: 700 nM
IC50 [5]: 890 nM
IC50 [6]: 730 nM
IC50 [7]: 780 nM
IC50 [8]: 810 nM
solubility thermodynamic at 24 h [9]: 884 µg/mL (≈ 2200 µM)

COc1cc(F)ccc1-c1ncnc(Nc2cccc(CS(C)(=O)=NC#N)c2)n1 (single isomer, unassigned) [Example 50, [(3-{[4-(4-fluoro-2-methoxyphenyl)-1,3,5-triazin-2-yl]amino}benzyl)(methyl)oxido-λ^6-sulfanylidene]cyanamide]
IC50 [1]: 7 nM
IC50 [2]: 430 nM
IC50 ([3]; Homo sapiens, HeLa): 260 nM
IC50 [4]: 190 nM
IC50 [5]: 310 nM
IC50 [6]: 140 nM
IC50 [7]: 350 nM
IC50 [8]: 250 nM
Thermodynamic solubility in water at pH 6.5 [9]: 126 mg/l

COc1cc(F)ccc1-c1ncnc(Nc2cccc(CS(C)(=N)=O)c2)n1 (single isomer, unassigned; (+)) [Example 4, (+)-4-(4-Fluoro-2-methoxyphenyl)-N-{3-[(S-methylsulfonimidoyl)methyl]phenyl}-1,3,5-triazin-2-amine]
IC50 [10]: > 10000 nM
IC50 [11]: > 10000 nM

CNC(=O)N=S(C)(=O)Cc1cccc(Nc2ncnc(-c3ccc(F)cc3OC)n2)c1 (single isomer, unassigned; (+)) [Example 17, (+)-1-[(3-{[4-(4-Fluoro-2-methoxyphenyl)-1,3,5-triazin-2-yl]amino}benzyl)(methyl)oxido-λ^6-sulfanylidene]-3-methylurea]
IC50 [1]: 14 nM
IC50 [2]: 1200 nM
IC50 [3]: 580 nM
IC50 [4]: 600 nM
IC50 [5]: 540 nM
IC50 [6]: 580 nM
IC50 [7]: 800 nM
IC50 [8]: 410 nM
Thermodynamic solubility in water at pH 6.5 [9]: 429 mg/l

COc1cc(F)ccc1-c1ncnc(Nc2cccc(CS(C)(=N)=O)c2)n1 (single isomer, unassigned; (-)) [Example 3, (−)-4-(4-Fluoro-2-methoxyphenyl)-N-{3-[(S-methylsulfonimidoyl)methyl]phenyl}-1,3,5-triazin-2-amine]
solubility thermodynamic at 24 h [9]: 601 µg/mL (≈ 1550 µM)
IC50 [10]: > 10000 nM
IC50 [11]: > 10000 nM

CNC(=O)N=S(C)(=O)Cc1cccc(Nc2ncnc(-c3ccc(F)cc3OC)n2)c1 (single isomer, unassigned; (-)) [Example 16, (−)-1-[(3-{[4-(4-Fluoro-2-methoxyphenyl)-1,3,5-triazin-2-yl]amino}benzyl)(methyl)oxido-λ^6-sulfanylidene]-3-methylurea]
IC50 [1]: 19 nM
IC50 [2]: 1100 nM
IC50 ([3]; Homo sapiens, HeLa): 950 nM
solubility thermodynamic at 24 h [9]: 323 µg/mL (≈ 727 µM)
